Test results as given in ChEMBL document CHEMBL5500346, “Targeting EGFR degradation by autophagosome degraders” (Eur J Med Chem, 2024).
Active and inactive are the calls of the source.

Assays:
[1] = tested on: A549; experiment: Antiproliferative activity against human A549 cells incubated for 72 hrs by CCK8 assay; type: functional, cell-based; conditions: A549, 72 h
[2] = tested on: HCC827; experiment: Antiproliferative activity against human HCC827 cells incubated for 72 hrs by CCK8 assay; type: functional, cell-based; conditions: HCC827, 72 h
[3] = tested on: PC-9; experiment: Antiproliferative activity against human PC-9 cells incubated for 72 hrs by CCK8 assay; type: functional, cell-based; conditions: PC-9, 72 h
[4] = tested on: NCI-H3255; experiment: Antiproliferative activity against human NCI-H3255 cells incubated for 72 hrs by CCK8 assay; type: functional, cell-based; conditions: NCI-H3255, 72 h
[5] = tested on: NCI-H1975; experiment: Antiproliferative activity against human NCI-H1975 cells incubated for 72 hrs by CCK8 assay; type: functional, cell-based; conditions: NCI-H1975, 72 h
[6] = tested on: L02; experiment: Antiproliferative activity against human HL7702 cells incubated for 72 hrs by CCK8 assay; type: toxicity, cell-based; conditions: l02, 72 h
[7] = tested on: PC-9; experiment: Antiproliferative activity against Gefitinib-resistant human PC-9 cells incubated for 72 hrs by CCK8 assay; type: functional, cell-based
[8] = target: T1, Microtubule-associated protein 1 light chain 3 beta/Epidermal growth factor receptor (Homo sapiens, UniProt P00533+Q9GZQ8); experiment: ATTEC activity at LC3B/EGFR in human HCC827 cells assessed as protein degradation by immunoblot analysis; type: cell-based
[9] = target: T1, Microtubule-associated protein 1 light chain 3 beta/Epidermal growth factor receptor; experiment: ATTEC activity at LC3B/EGFR in human HCC827 cells assessed as protein degradation at 0.33 uM by immunoblot analysis relative to control; type: cell-based
[10] = target: T1, Microtubule-associated protein 1 light chain 3 beta/Epidermal growth factor receptor; experiment: Binding affinity to biotinylated LC3B/EGFR in human HCC827 cells BLI assay; type: cell-based
[11] = target: T1, Microtubule-associated protein 1 light chain 3 beta/Epidermal growth factor receptor; experiment: Binding affinity to biotinylated LC3B/EGFR in human HCC827 cells assessed as dissociation constant BLI assay; type: cell-based
[12] = target: T1, Microtubule-associated protein 1 light chain 3 beta/Epidermal growth factor receptor; experiment: ATTEC activity at LC3B/EGFR in human HCC827 cells assessed as increase in density of lysosomes incubated for 4 hrs by LysoTracker Red staining based analysis; type: cell-based

`COc1cc2ncnc(Nc3ccc(F)c(Cl)c3)c2cc1OCCOCCNC(=O)COc1c(Br)cc(/C=C2\C(=O)Nc3ccc(Br)cc32)cc1Br` was tested, and the IC50 [1] was > 10 µM, the IC50 [2] was > 10 µM and the IC50 [3] was > 10 µM. The IC50 [4] was 5.18 µM, the IC50 [5] was > 10 µM and the Activity [6] was “Non-Toxic”. For the same molecule, the Activity [7] was “Active” and the DC50 [8] was > 10 µM.

For `COc1cc2ncnc(Nc3ccc(F)c(Cl)c3)c2cc1OCCOCCOCCNC(=O)COc1c(Br)cc(/C=C2\C(=O)Nc3ccc(I)cc32)cc1Br`, the IC50 [1] was > 10 µM, the IC50 [2] was 2.78 µM and the IC50 [3] was 11.1 µM. For the same molecule, the IC50 [4] was 4.79 µM, the IC50 [5] was > 10 µM and the Activity [6] was “Non-Toxic”. The DC50 [8] was 3.62 µM.

For `COc1cc2ncnc(Nc3ccc(F)c(Cl)c3)c2cc1OCCOCCOCCOCCNC(=O)C(C)Oc1c(Br)cc(/C=C2\C(=O)Nc3ccc(I)cc32)cc1Br` (configuration not stated), the IC50 [1] was > 10 µM, the IC50 [2] was 0.923 µM and the IC50 [3] was 7.04 µM. For the same molecule, the IC50 [4] was 3.41 µM, the IC50 [5] was > 10 µM and the Activity [6] was “Non-Toxic”. For the same molecule, the Activity [7] was “Active” and the DC50 [8] was 6.42 µM.

In the case of `COc1cc2ncnc(Nc3ccc(F)c(Cl)c3)c2cc1OCCCCCCNC(=O)COc1c(Br)cc(/C=C2\C(=O)Nc3ccc(I)cc32)cc1Br`, the IC50 [1] is reported as > 10 µM, the IC50 [2] is reported as > 10 µM and the IC50 [3] is reported as > 10 µM. For the same molecule, the IC50 [4] was > 10 µM, the IC50 [5] was > 10 µM and the Activity [6] was “Non-Toxic”. For the same molecule, the DC50 [8] was > 10 µM.

For `COc1cc2ncnc(Nc3ccc(F)c(Cl)c3)c2cc1OCCCCCCCCCCNC(=O)COc1c(Br)cc(/C=C2\C(=O)Nc3ccc(I)cc32)cc1Br`, the IC50 [1] was > 10 µM, the IC50 [2] was 0.976 µM and the IC50 [3] was > 10 µM. The IC50 [4] was 4.93 µM, the IC50 [5] was > 10 µM and the Activity [6] was “Non-Toxic”. The DC50 [8] was > 10 µM.

In the case of `COc1cc2ncnc(Nc3ccc(F)c(Cl)c3)c2cc1OCCOCCNC(=O)COc1c(Br)cc(/C=C2\C(=O)Nc3ccc(C)cc32)cc1Br`, the IC50 [1] is reported as > 10 µM, the IC50 [2] is reported as 1.72 µM and the IC50 [3] is reported as 3.53 µM. For the same molecule, the IC50 [4] was 2.46 µM, the IC50 [5] was > 10 µM and the Activity [6] was “Non-Toxic”. For the same molecule, the Activity [7] was “Active” and the DC50 [8] was > 10 µM.

With `COc1cc2ncnc(Nc3ccc(F)c(Cl)c3)c2cc1OCCOCCOCCNC(=O)COc1c(Br)cc(/C=C2\C(=O)Nc3ccccc32)cc1Br` the IC50 [1] was > 10 µM, the IC50 [2] was 1.15 µM and the IC50 [3] was 1.43 µM. For the same molecule, the IC50 [4] was 0.908 µM, the IC50 [5] was 3.18 µM and the Activity [6] was “Non-Toxic”. The Activity [7] was “Active” and the DC50 [8] was > 10 µM.

For `COc1cc2ncnc(Nc3ccc(F)c(Cl)c3)c2cc1OCCOCCNC(=O)COc1c(Br)cc(/C=C2\C(=O)Nc3ccc(I)cc32)cc1Br`, the IC50 [1] was > 10 µM, the IC50 [2] was 1.28 µM and the IC50 [3] was 7.96 µM. For the same molecule, the IC50 [4] was 3.1 µM, the IC50 [5] was > 10 µM and the Activity [6] was “Non-Toxic”. The DC50 [8] was > 10 µM and the Emax [9] was 20.2%.

`COc1cc2ncnc(Nc3ccc(F)c(Cl)c3)c2cc1OCCOCCOCCNC(=O)COc1c(Br)cc(/C=C2\C(=O)Nc3ccc(Cl)cc32)cc1Br` was tested, and the IC50 [1] was > 10 µM, the IC50 [2] was 6.03 µM and the IC50 [3] was 3.81 µM. For the same molecule, the IC50 [4] was 2 µM, the IC50 [5] was > 10 µM and the Activity [6] was “Non-Toxic”. For the same molecule, the Activity [7] was “Active” and the DC50 [8] was 8.49 µM.

With `COc1cc2ncnc(Nc3ccc(F)c(Cl)c3)c2cc1OCCOCCNC(=O)COc1c(Br)cc(/C=C2\C(=O)Nc3ccccc32)cc1Br` the IC50 [1] was > 10 µM, the IC50 [2] was 1.16 µM and the IC50 [3] was 3.63 µM. For the same molecule, the IC50 [4] was 0.904 µM, the IC50 [5] was > 10 µM and the Activity [6] was “Non-Toxic”. For the same molecule, the DC50 [8] was 4.38 µM, the Activity [10] was “Active” and the Kd [11] was 2.2 µM. The Activity [12] was “Active”.

`COc1cc2ncnc(Nc3ccc(F)c(Cl)c3)c2cc1OCCOCCOCCNC(=O)COc1c(Br)cc(/C=C2\C(=O)Nc3ccc(Br)cc32)cc1Br` was tested, and the IC50 [1] was > 10 µM, the IC50 [2] was 1.06 µM and the IC50 [3] was 3.12 µM. The IC50 [4] was 2.84 µM, the IC50 [5] was > 10 µM and the Activity [6] was “Non-Toxic”. The Activity [7] was “Active” and the DC50 [8] was > 10 µM.
